From a melting point compilation (Tetko et al.; mined from patent text by program, amines drawn as free bases though some values may be those of a salt) come the findings set out here.

As to `CCOC(=O)/C=C(C)/C=C/C=C(C)/C=C/c1c(C)cc(OC(F)(F)F)c(C)c1C`, the melting point – broadly, the temperature of the solid-liquid transition – was in the range of 47 to 49 °C.

For the molecule `CC(C)c1sc2ncnc(N)c2c1-c1ccc(NC(=O)c2ccccc2)cc1`, the melting point was more than 250 °C.

As to `CCCCCCCNC(=O)Nc1ccccc1CCc1cc(C(C)C)c(O)c(C(C)C)c1`, the melting point fell in the range of 150 to 151 °C.

Regarding `Nc1nc(NCCN2CCC(NC3(Cc4ccc(F)cc4)Nc4ccccc4N3)CC2)ccc1[N+](=O)[O-]`, the melting point was found to be 206 °C.

On to `CN1CCN(C(=O)Nc2ccccc2CCc2cc(C(C)(C)C)c(O)c(C(C)(C)C)c2)CC1`, for which the melting point fell in the range of 134 to 137 °C.

As to `COc1cc(OC)n2nc(N)nc2n1`, the melting point lay within 215 to 220 °C.

Molecule `CCCCN1C(=O)NC(=Cc2ccc(C(=O)OC)cc2)C1=O` yielded a melting point of 212 °C.

Turning to `Nc1c(Cl)cc(C(=O)NC2CCN(CCO)CC2)c2c1CCO2`, the melting point came to 186 °C.

Consider `CC1(C)CCCC(C)(C)N1OCc1ccccc1C(=O)ON1C(=O)CCC1=O`, for which the melting point came to 145 °C.

The molecule `CCOP(=O)(CCOc1ccc(C(=O)O)cc1)OCC` displayed a melting point of 86 to 88 °C.

With `O=S(=O)(c1ccccc1)n1c2ccc(C=Cc3ccccc3)cc2c2cc(Cl)cnc21`, the melting point lay in the range of 190 to 192 °C.

For the molecule `O=C(O)C(=O)c1cc(F)c(OCCOc2ccc3ccccc3c2)c(F)c1`, the melting point is 129 to 130 °C.

Take `CCOC(=O)C1(C)C(=O)Nc2cc(NC(=O)c3ccncc3)ccc21` (configuration not stated): the melting point lay in the range of 222 to 224 °C.

In turn, `CCCCCCCCCCCCCCCCCCOC(=O)ON1C(=O)c2ccccc2C1=O` showed a melting point of 83 to 89 °C.

For the molecule `Cc1c(C#N)sc(N=Nc2c(NCCO)nc(NCCO)c(C#N)c2C)c1C#N`, the melting point was 268 to 269 °C.

Consider `CCOC(=O)c1cn2c3c(c(Cl)c(F)cc3c1=O)C(=O)CC2C` (single isomer, unassigned; (-)), for which the melting point lay in the range of 252 to 254 °C.

`CCOC(=O)CC(=O)c1cc(OC)c(OC)c([N+](=O)[O-])c1` gave a melting point of 67 to 68 °C.

Regarding `CONC(=NCCSCc1[nH]cnc1C)NC#N`, the melting point lay in the range of 155 to 156 °C.

Molecule `CN(Cc1cccc2c1CN(C1CCC(=O)NC1=O)C2=O)C(=O)NC(C)(C)C` (configuration not stated) registered a melting point of 216 to 218 °C.

For `O=C(O)C1=CCC2CC(=O)C12` (configuration not stated), the melting point is 52 to 56 °C.

For the molecule `Cc1cc([N+](=O)[O-])cc(N)c1[N+](=O)[O-]`, the melting point is 125 to 127 °C.

In turn, `CCCn1c(=O)[nH]c(Cl)c(-c2ccccc2)c1=O` had a melting point of 230 to 231 °C.

On to `COC(=O)c1ccc(C(=O)C=CN(C)C)cc1Cl`, for which the melting point is 92 to 96 °C.

`COc1cccc(CNC(=O)c2cc3c(=O)n(Cc4ccc([N+](=O)[O-])nc4)c(=O)n(C)c3s2)c1` gave a melting point of 213 to 215 °C.

The molecule `CNn1cc(C(=O)O)c(=O)c2cc(F)c(N3CCN(C)CC3)cc21` displayed a melting point of 299 to 301 °C.

Molecule `COc1ccc(-c2cnc3[nH]cc(C#N)c3n2)cc1OC` yielded a melting point of 284 to 285 °C.

For the molecule `CC(C)(C)c1cc(C(=O)NCc2ccc([N+](=O)[O-])cc2)cc(C(C)(C)C)c1O`, the melting point is 230 to 231 °C.

`CCCc1nc(N2CCOCC2)nc(N(CCOC(C)=O)C(C)=O)n1` came in with a melting point of 49 to 50 °C.

Consider `CC(=O)Nc1cccc2cc(S(=O)(=O)Nc3onc(C)c3C)ccc12`, for which the melting point is 210 to 212 °C.

Regarding `CN(CC#CC1=Cc2ccccc2Sc2ccc(Cl)cc21)CCO`, the melting point lay in the range of 86 to 88 °C.

Regarding `CCn1c(C)nc2cc(S(C)(=O)=O)c(Cl)c([N+](=O)[O-])c21`, the melting point was in the range of 75 to 79 °C.

Molecule `CC(C)(C)OC(=O)N1CC2CCCCC(C1)C2C=O` (configuration not stated) showed a melting point of 55 to 60 °C.

Consider `CC(C)c1nn(-c2ccccc2)c(-c2ccc(F)cc2)c1CO`, for which the melting point was in the range of 138 to 140 °C.

For the molecule `CCOC(=O)c1cccn2cc(C(F)(F)F)nc12`, the melting point is 108 to 110 °C.

In turn, `CCCc1nc(C(O)C(C)(C)C)c(C(N)=O)n1Cc1ccc(-c2ccccc2C(=O)O)cc1` (configuration not stated) had a melting point of more than 160 °C.

Take `CN1CCC(OC2c3ccccc3CCn3c(I)cnc32)CC1` (configuration not stated): the melting point is 163 °C.

Regarding `CC(=O)CC(=O)Nc1ccc(Cn2ccnc2)cc1`, the melting point turned out to be 175 °C.

The molecule `Cc1nc2cc(S(=O)(=O)n3c(CCCC(=O)O)cc4cc(C(F)(F)F)ccc43)ccc2s1` returned a melting point of 171 to 178 °C.

Turning to `CCOCCS(=O)(=O)C(F)(F)C(O)(Cn1cncn1)c1ccc(F)cc1F` (configuration not stated), the melting point was 89 to 91 °C.

`Cc1cccc(C)c1NC(N)=NOC1CCCCO1` (configuration not stated) yielded a melting point of 196 to 197 °C.

Regarding `CCOC(=O)c1cnc2nc(C)c(OCC)cc2c1Cl`, the melting point was more than 250 °C.

In the case of `Oc1cccc2c1cc(C1=NCCN1)n2-c1ccccc1`, the melting point was more than 270 °C.

Take `CC(C)n1c(=O)nc(-c2ccc3c(c2)OCO3)c2cc3c(cc21)OCCO3`: the melting point was 229 to 231 °C.

With `O=C1NC(=O)C(Cc2ccc(OCCN3CCOCC3)cc2)S1` (configuration not stated), the melting point lay in the range of 188 to 189 °C.

As for `CC1C(=O)N(Nc2ccccc2)C1C#C[Si](C)(C)C` (configuration not stated), the melting point turned out to be 136 °C.

Molecule `FC(F)(F)c1ccccc1CC[C@H]1CNCCN1` returned a melting point of 43 to 47 °C.

`O=C1C(Cc2ccccc2)NC(=S)N1c1nc(C(F)(F)F)cs1` (configuration not stated) showed a melting point of 187 to 189 °C.

Take `c1ccc2oc(NCc3ccncc3)nc2c1`: the melting point stood at 148 °C.

The molecule `Cc1cccc(-c2[nH]c(C(C)C)nc2-c2cccc(-c3ccc4c(c3)CCS4(=O)=O)c2)n1` returned a melting point of 128 to 131 °C.

Turning to `CCc1nc2c(NC(=O)C(C)(C)C)nc3ccccc3c2n1CCCCNS(C)(=O)=O`, the melting point lay within 220 to 221 °C.

As for `CC(=O)O[C@@H]1C2=C(OC(C(C)=O)=C[C@@H]2N2CCCCC2=O)SC1(C)C` (relative stereo), the melting point was 180 °C.

For `Cc1c(C(=O)Nc2ccc(N3CCC(N4CCNCC4)CC3)c(C#N)c2)cnn1-c1ccc(Cl)cc1`, the melting point amounted to 226 °C.

For the molecule `O=C1NC(=O)C2(CCCN3CCN(c4ccc(Cl)cc4)CC3)C=CC=CC12` (configuration not stated), the melting point came out at 120 °C.

Consider `C=CCC(O)c1c(-c2ccc(F)cc2)nc(N(C)S(C)(=O)=O)nc1C(C)C` (configuration not stated), for which the melting point worked out at 126 °C.

In turn, `COC(=O)c1ccc(NCC=Cc2ccccc2)cn1` gave a melting point of 131 to 133 °C.

Molecule `O=C(OCC1OC(n2cnc3c(N(C(=O)c4ccccc4)C(=O)c4ccccc4)ncnc32)C(O)(C(=O)c2ccccc2)C1(O)C(=O)c1ccccc1)c1ccccc1` (configuration not stated) returned a melting point of 183 to 184 °C.

Regarding `Cc1ccc(-c2c(C)c3cc(O)ccc3n2Cc2ccc(OCCN3CCCCC3)cc2)cc1`, the melting point lay in the range of 162 to 164 °C.

`CCCOc1ccc(S(=O)(=O)Nc2ccc3[nH]ncc3c2)cc1-c1nc2cc(N)c(N)cc2c(=O)[nH]1` displayed a melting point of 261 to 263 °C.

Take `CCCCc1nc2cccc(CO)c2n1Cc1ccc(-c2ccccc2-c2nnn[nH]2)cc1`: the melting point lay in the range of 152 to 153 °C.

For the molecule `COc1ccc(N2CCN(c3c(C)c(C)c4c(c3C)C(OCc3ccc(C)cc3)C(C)(C)O4)CC2)cc1` (configuration not stated), the melting point was in the range of 84 to 85 °C.

Regarding `CCCN(CCC)Cn1cnc2c1c(=O)n(C)c(=O)n2C`, the melting point is 72 to 73 °C.

As to `S=C(NCCc1cccc(Cl)c1)Nc1nc2ccccc2[nH]1`, the melting point was 171 to 177 °C.

`COc1cccc(-c2[nH]c(-c3ccc(N)cc3)nc2C(=O)Nc2nccs2)c1` returned a melting point of 262 to 263 °C.

As to `C[C@@H](n1cnc2cc(-c3ccc(C#N)cc3)sc2c1=O)[C@](O)(Cn1cncn1)c1ccc(Cl)cc1Cl`, the melting point lay within 133 to 138 °C.

For the molecule `COc1cc(F)ccc1-c1ccc(O)c(C(=O)O)c1`, the melting point fell in the range of 205 to 207 °C.

Take `c1cc(CNc2nccc3ccccc23)cc(Nc2nnc3c4c(cccc24)-c2ccccc2-3)c1`: the melting point lay in the range of 149 to 152 °C.

For the molecule `CC(=O)N1CCCC2=C1CCc1cccc(Cl)c12`, the melting point was 117 to 118 °C.

As to `CSc1cc2c(cc1C(F)(F)F)N(C(=O)Nc1ccccc1)CC2`, the melting point fell in the range of 163 to 165 °C.

As to `O=C1COc2ccc3c(c2N1)C(=O)CC3`, the melting point lay within 136 to 139 °C.

Molecule `S=c1n(CNCc2ccc(Cl)cc2)nc(-c2ccncc2)n1-c1ccccc1` returned a melting point of 222 to 223 °C.

Molecule `COc1ccccc1-c1ncc(-c2nnn[nH]2)c(=O)[nH]1` gave a melting point of 282 to 283 °C.

`NC(=O)CNC(=O)c1cc(-c2cccc3cc(Cc4cc(F)cc(Cl)c4)sc23)ccn1` yielded a melting point of 157 to 158 °C.

`CSc1c[nH]nc1C1CN2CCC1CC2` (configuration not stated) showed a melting point of 145 to 147 °C.

Regarding `CCOC(=O)NNc1ccc(N(CC)CC(C)O)nn1` (configuration not stated), the melting point fell in the range of 160 to 162 °C.

The molecule `Cn1c(=O)[nH]c(=O)c2c1ncn2CCCCCCO` registered a melting point of 219 to 220 °C.

Consider `CCOC(=O)n1nc(-c2cc(C(C)(C)C)c(O)c(C(C)(C)C)c2)c2ccc(C)nc21`, for which the melting point was in the range of 208 to 209 °C.

Turning to `C[C@@H]1CN(c2cccc(-c3cn[nH]c3N)c2)C[C@H](C)O1`, the melting point fell in the range of 158 to 160 °C.

Consider `Cc1oc(-c2ccccc2)nc1COc1ccc(COc2ccc(CC(=O)O)cc2)cc1`, for which the melting point was 166 to 167 °C.

Regarding `CC1(C)OC(=O)Nc2ccc(-c3ccc(F)cc3)cc21`, the melting point was 232 to 233 °C.

As to `CCOCc1nc2c(N)nc3ccccc3c2n1NCCCNS(C)(=O)=O`, the melting point lay within 148 to 150 °C.

Turning to `COc1ccc(C2=NN(Cc3ccc([N+](=O)[O-])cc3)C(=O)CC2)cc1OC`, the melting point was determined as 126 °C.

Regarding `CC1=CC(C)(C)OC(c2nsc3ccc(-n4c(=O)cc(C(F)(F)F)n(C)c4=O)cc23)C1` (configuration not stated), the melting point lay in the range of 88 to 92 °C.

In turn, `Cc1cc(C)n(Cc2ccc(Cl)cc2Cl)c1/C=C/C(=O)O` showed a melting point of 193 to 194 °C.

`CCOC(=O)CCCOc1ccc(C(N)=O)cc1` returned a melting point of 144 to 146 °C.

`O=C(O)c1ccc2oc(-c3ccccc3)cc(=O)c2c1` yielded a melting point of 281 to 283 °C.

Take `C[C@@H]1S[C@@H](C(=O)Nc2ccc(CN3CCC(=O)CC3)cc2)Cc2cc3c(cc2C1=O)OCO3`: the melting point lay within 199 to 201 °C.

For the molecule `CC1CCCN(c2nc(S(C)(=O)=O)nc(Cl)c2-c2c(F)cc(F)cc2F)O1` (configuration not stated), the melting point was in the range of 160 to 162 °C.
